Measured values taken from patent publication US20090155209A1, “NOVEL MACROCYCLIC INHIBITORS OF HEPATITIS C VIRUS REPLICATION” (priority 2007, published 2009).

Experiments:
[1] = molecular target: T1, NS3-NS4 (Hepatitis C virus genotype 1a, UniProt P27958); assay: NS3-NS4 activity, IC50 (Example 37, Table 8); format: biochemical
[2] = molecular target: T1, NS3-NS4; assay: cell-based; conditions: EC50, NS3-NS4 activity
[3] = Single ascending dose study, fasted and fed: safety and non-compartmental plasma PK; format: in vivo, healthy volunteers (human); conditions: single dose, healthy volunteers
Experimental: A single ascending dose (SAD) study of the compound 100 was conducted in healthy volunteers. The compound 100 was administered as monotherapy both with and without food. The safety and pharmacokinetic profile of the single dose of the compound 100 was assessed.
Interim, blinded data were used for Pharmacokinetic (PK) study relating to food effects. With the exception of the 400 mg cohort, eight subjects were studied at each dose (single doses of 100, 200, or 800 mg of the sodium salt of the compound 100, which may be referred to herein as ITMN-191, administered in the fasting state). In the 400 mg cohort, ten subjects received single 400 mg doses of ITMN-191 under both fasted and fed conditions with a 5-day washout period between dosing. In the 100 mg cohort, subjects were sampled within 1 hour before dosing and at 0.5, 1, 1.5, 2, 2.5, 3, 4, 6, 8, 12, 18, 24, 32 and 48 hours after dosing. For subsequent cohorts, subjects were sampled within 1 hour before dosing and at 0.25, 0.5, 1, 1.5, 2, 2.5, 3, 4, 6, 8, 12, 18, 24, and 32 hours after dosing. Nominal (not actual) sampling times were used for the analysis. PK samples were analyzed using liquid chromatography-tandem mass spectrometry (LC/MS/MS with API 4000 mass spectrometer) following solid-phase extraction. The upper and lower limits of quantitation (ULOQ and LLOQ) are 100 and 0.01 ng/mL, respectively.
Pharmacokinetic parameter estimates were calculated using non-compartmental methods (implemented using Microsoft Excel®). Half-lives were determined by visual inspection of the log concentration-time plots to choose the terminal phase (minimum of three detectable observations). Using linear regression of the chosen terminal phase observations, elimination rate constants were calculated as the negative slope of the regression line and half-life as the natural log of 2 divided by the elimination rate constant.
Ten subjects received single 1600 mg doses of ITMN-191 under both fasted and fed conditions with a 5-day washout period between dosing. For each condition, subjects were sampled within 1 hour before dosing and at 0.25, 0.5, 1, 1.5, 2, 2.5, 3, 4, 6, 8, 12, 18, 24, and 32 hours after dosing. Pharmacokinetic parameter estimates were calculated using non-compartmental methods. Half-life (t1/2) was determined by visual inspection of the log concentration-time plots to choose the terminal phase (minimum of three detectable observations). Using linear regression of the chosen terminal phase observations, elimination rate constants were calculated as the negative slope and half-life as the natural log of 2 divided by the elimination rate constant.

T1 sequence (P27958 1027-1657): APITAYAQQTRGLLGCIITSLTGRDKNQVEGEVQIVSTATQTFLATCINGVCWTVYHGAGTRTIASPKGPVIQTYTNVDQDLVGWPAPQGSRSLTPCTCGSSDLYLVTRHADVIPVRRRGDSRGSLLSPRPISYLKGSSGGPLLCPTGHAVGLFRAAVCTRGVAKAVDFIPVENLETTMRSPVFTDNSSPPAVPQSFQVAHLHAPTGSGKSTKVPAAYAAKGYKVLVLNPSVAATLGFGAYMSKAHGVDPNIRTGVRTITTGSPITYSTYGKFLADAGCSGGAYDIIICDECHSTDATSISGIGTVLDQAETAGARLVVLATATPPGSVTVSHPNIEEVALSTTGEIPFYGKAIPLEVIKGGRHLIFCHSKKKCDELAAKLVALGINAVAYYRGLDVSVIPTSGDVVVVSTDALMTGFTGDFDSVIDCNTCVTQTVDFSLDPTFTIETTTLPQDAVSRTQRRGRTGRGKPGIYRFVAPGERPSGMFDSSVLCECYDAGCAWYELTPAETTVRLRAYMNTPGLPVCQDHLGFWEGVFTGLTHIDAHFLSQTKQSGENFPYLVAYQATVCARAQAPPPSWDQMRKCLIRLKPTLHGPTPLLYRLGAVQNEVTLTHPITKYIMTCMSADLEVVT
T1 sequence (P27958 1658-1711): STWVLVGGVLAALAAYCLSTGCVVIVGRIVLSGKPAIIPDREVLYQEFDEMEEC

Structure (SMILES) | IC50 [1] [nM] | EC50 [2] [nM] | tolerability ([3]; all doses) | exposure when administered with food, compared to without food [3]
CC(C)(C)OC(=O)N[C@H]1CCCCC[C@@H]2C[C@@H]2[C@@H]2C[C@@]2(C(=O)NS(=O)(=O)C2(C)CC2)NC(=O)[C@@H]2C[C@@H](OC(=O)N3Cc4cccc(F)c4C3)CN2C1=O [Compound 901] | < 100 | < 100 |  | 
CC(C)(C)OC(=O)N[C@H]1CCCCC[C@@H]2C[C@@H]2[C@@H]2C[C@@]2(C(=O)NS(=O)(=O)C2CC2)NC(=O)[C@@H]2C[C@@H](OC(=O)N3Cc4cccc(F)c4C3)CN2C1=O [Compound 902] | < 100 | < 100 |  | 
CC(C)(C)OC(=O)N[C@H]1CCCCC[C@H]2C[C@H]2[C@@H]2C[C@@]2(C(=O)NS(=O)(=O)C2(C)CC2)NC(=O)[C@@H]2C[C@@H](OC(=O)N3Cc4cccc(F)c4C3)CN2C1=O [Compound 903] | < 100 | < 100 |  | 
CC(C)(C)OC(=O)N[C@H]1CCCCC[C@H]2C[C@H]2[C@@H]2C[C@@]2(C(=O)NS(=O)(=O)C2CC2)NC(=O)[C@@H]2C[C@@H](OC(=O)N3Cc4cccc(F)c4C3)CN2C1=O [Compound 904] | < 100 | < 100 |  | 
CC(C)(C)OC(=O)N[C@H]1CCCCC/C=C\[C@@H]2C[C@@]2(C(=O)NS(=O)(=O)C2CC2)NC(=O)[C@@H]2C[C@@H](OC(=O)N3Cc4cccc(F)c4C3)CN2C1=O [compound 100] |  |  | well tolerated | higher than anticipated exposure
